Source: ChEMBL document CHEMBL3994622, “Design and synthesis of new RAF kinase-inhibiting antiproliferative quinoline derivatives. Part 2: Diarylurea derivatives” (Eur J Med Chem, 2017)

How the values were obtained:
[1] = biological target: Serine/threonine-protein kinase B-raf (Homo sapiens, UniProt P15056); assay: Inhibition of human BRAF at 10 uM using MEK1 as substrate in presence of [33P]ATP by Hotspot assay relative to control
LOX IMVI = assay: Growth inhibition of human LOXIMVI cells assessed as cell growth at 3 uM incubated for 48 hrs by sulforhodamine B assay relative to control; assay type: functional; conditions: read-out: Activity
[2] = tested on: Serine/threonine-protein kinase B-raf (Homo sapiens), P15056 [V600E]; assay: Inhibition of human BRAF V600E mutant at 10 uM using MEK1 as substrate in presence of [33P]ATP by Hotspot assay relative to control
Chain of Serine/threonine-protein kinase B-raf (Homo sapiens), P15056 [V600E] (P15056 whole entry V600E): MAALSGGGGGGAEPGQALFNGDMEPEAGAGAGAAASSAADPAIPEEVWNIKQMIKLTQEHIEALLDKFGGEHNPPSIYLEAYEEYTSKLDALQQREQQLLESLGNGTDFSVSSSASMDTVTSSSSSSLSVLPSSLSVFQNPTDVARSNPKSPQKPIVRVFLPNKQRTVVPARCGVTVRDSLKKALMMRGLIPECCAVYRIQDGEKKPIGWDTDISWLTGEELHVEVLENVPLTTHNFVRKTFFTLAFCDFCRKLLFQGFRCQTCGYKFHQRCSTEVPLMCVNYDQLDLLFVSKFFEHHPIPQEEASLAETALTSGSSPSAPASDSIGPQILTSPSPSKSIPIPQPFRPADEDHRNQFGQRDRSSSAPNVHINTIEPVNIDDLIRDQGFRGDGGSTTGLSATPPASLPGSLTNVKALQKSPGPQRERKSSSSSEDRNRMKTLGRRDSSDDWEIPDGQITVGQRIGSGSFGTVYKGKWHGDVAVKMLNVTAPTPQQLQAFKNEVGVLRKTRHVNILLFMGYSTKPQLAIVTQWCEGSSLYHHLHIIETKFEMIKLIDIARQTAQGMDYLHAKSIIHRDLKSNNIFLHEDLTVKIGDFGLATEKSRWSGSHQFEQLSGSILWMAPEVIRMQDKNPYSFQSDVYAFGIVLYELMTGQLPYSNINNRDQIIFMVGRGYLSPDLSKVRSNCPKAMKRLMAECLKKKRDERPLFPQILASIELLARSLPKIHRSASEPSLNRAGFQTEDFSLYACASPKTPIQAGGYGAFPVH

SK-MEL-5 = assay: Growth inhibition of human SK-MEL-5 cells assessed as cell growth at 0.5 uM incubated for 48 hrs by sulforhodamine B assay relative to control; assay type: functional; conditions: SK-MEL-5, 48 h, read-out: Activity
BT-549 = assay: Growth inhibition of human BT549 cells assessed as cell growth at 0.5 uM incubated for 48 hrs by sulforhodamine B assay relative to control; assay type: functional; conditions: BT-549, 48 h, read-out: Activity
UACC-257 = assay: Growth inhibition of human UACC257 cells assessed as cell growth at 0.05 uM incubated for 48 hrs by sulforhodamine B assay relative to control; assay type: functional; conditions: UACC-257, 48 h, read-out: Activity
HOP-92 = assay: Growth inhibition of human HOP92 cells assessed as cell growth at 5 uM incubated for 48 hrs by sulforhodamine B assay relative to control; assay type: functional; conditions: HOP-92, 48 h, read-out: Activity
RXF 393 = assay: Growth inhibition of human RXF393 cells assessed as cell growth at 0.05 uM incubated for 48 hrs by sulforhodamine B assay relative to control; assay type: functional; conditions: RXF 393, 48 h, read-out: Activity
KM12 [3] = assay: Growth inhibition of human KM12 cells assessed as cell growth at 0.05 uM incubated for 48 hrs by sulforhodamine B assay relative to control; assay type: functional; conditions: KM12, 48 h, read-out: Activity
MCF7 [4] = assay: Growth inhibition of human MCF7 cells assessed as cell growth at 5 uM incubated for 48 hrs by sulforhodamine B assay relative to control; assay type: functional; conditions: MCF7, 48 h, read-out: Activity
NCI-H522 = assay: Growth inhibition of human NCI-H522 cells assessed as cell growth at 5 uM incubated for 48 hrs by sulforhodamine B assay relative to control; assay type: functional; conditions: NCI-H522, 48 h, read-out: Activity
IGROV-1 [5] = assay: Growth inhibition of human IGROV1 cells assessed as cell growth at 50 uM incubated for 48 hrs by sulforhodamine B assay relative to control; assay type: functional; conditions: IGROV-1, 48 h, read-out: Activity
CAKI-1 = assay: Growth inhibition of human Caki1 cells assessed as cell growth at 50 uM incubated for 48 hrs by sulforhodamine B assay relative to control; assay type: functional; conditions: CAKI-1, 48 h, read-out: Activity
MCF7 [6] = assay: Growth inhibition of human MCF7 cells assessed as cell growth at 0.05 uM incubated for 48 hrs by sulforhodamine B assay relative to control; assay type: functional; conditions: MCF7, 48 h, read-out: Activity
IGROV-1 [7] = assay: Growth inhibition of human IGROV1 cells assessed as cell growth at 5 uM incubated for 48 hrs by sulforhodamine B assay relative to control; assay type: functional; conditions: IGROV-1, 48 h, read-out: Activity
HCC 2998 = assay: Growth inhibition of human HCC2998 cells assessed as cell growth at 0.05 uM incubated for 48 hrs by sulforhodamine B assay relative to control; assay type: functional; conditions: HCC 2998, 48 h, read-out: Activity
SNB-75 [8] = assay: Growth inhibition of human SNB75 cells assessed as cell growth at 0.5 uM incubated for 48 hrs by sulforhodamine B assay relative to control; assay type: functional; conditions: SNB-75, 48 h, read-out: Activity
NCI-H23 = assay: Growth inhibition of human NCI-H23 cells assessed as cell growth at 5 uM incubated for 48 hrs by sulforhodamine B assay relative to control; assay type: functional; conditions: NCI-H23, 48 h, read-out: Activity
UACC-62 = assay: Growth inhibition of human UACC62 cells assessed as cell growth at 0.05 uM incubated for 48 hrs by sulforhodamine B assay relative to control; assay type: functional; conditions: UACC-62, 48 h, read-out: Activity
HCT-15 = assay: Growth inhibition of human HCT15 cells assessed as cell growth at 50 uM incubated for 48 hrs by sulforhodamine B assay relative to control; assay type: functional; conditions: HCT-15, 48 h, read-out: Activity
NCI-H460 = assay: Growth inhibition of human NCI-H460 cells assessed as cell growth at 0.05 uM incubated for 48 hrs by sulforhodamine B assay relative to control; assay type: functional; conditions: NCI-H460, 48 h, read-out: Activity
SF-539 = assay: Growth inhibition of human SF539 cells assessed as cell growth at 50 uM incubated for 48 hrs by sulforhodamine B assay relative to control; assay type: functional; conditions: SF-539, 48 h, read-out: Activity
SNB-75 [9] = assay: Growth inhibition of human SNB75 cells assessed as cell growth at 5 uM incubated for 48 hrs by sulforhodamine B assay relative to control; assay type: functional; conditions: SNB-75, 48 h, read-out: Activity
Malme-3M = assay: Growth inhibition of human MALME-3M cells assessed as cell growth at 0.005 uM incubated for 48 hrs by sulforhodamine B assay relative to control; assay type: functional; conditions: read-out: Activity
KM12 [10] = assay: Growth inhibition of human KM12 cells assessed as cell growth at 0.5 uM incubated for 48 hrs by sulforhodamine B assay relative to control; assay type: functional; conditions: KM12, 48 h, read-out: Activity
MDA-MB-231 = assay: Growth inhibition of human MDA-MB-231 cells assessed as cell growth at 5 uM incubated for 48 hrs by sulforhodamine B assay relative to control; assay type: functional; conditions: MDA-MB-231, 48 h, read-out: Activity
SK-MEL-28 = assay: Growth inhibition of human SK-MEL-28 cells assessed as cell growth at 0.5 uM incubated for 48 hrs by sulforhodamine B assay relative to control; assay type: functional; conditions: SK-MEL-28, 48 h, read-out: Activity
Hs-578T = assay: Growth inhibition of human Hs 578T cells assessed as cell growth at 50 uM incubated for 48 hrs by sulforhodamine B assay relative to control; assay type: functional; conditions: read-out: Activity
MCF7 [11] = assay: Growth inhibition of human MCF7 cells assessed as cell growth at 50 uM incubated for 48 hrs by sulforhodamine B assay relative to control; assay type: functional; conditions: MCF7, 48 h, read-out: Activity
SW-620 = assay: Growth inhibition of human SW620 cells assessed as cell growth at 0.05 uM incubated for 48 hrs by sulforhodamine B assay relative to control; assay type: functional; conditions: SW-620, 48 h, read-out: Activity
HOP-62 = assay: Growth inhibition of human HOP62 cells assessed as cell growth at 50 uM incubated for 48 hrs by sulforhodamine B assay relative to control; assay type: functional; conditions: HOP-62, 48 h, read-out: Activity
MDA-MB-468 [12] = assay: Growth inhibition of human MDA-MB-468 cells assessed as cell growth at 0.03 uM incubated for 48 hrs by sulforhodamine B assay relative to control; assay type: functional; conditions: MDA-MB-468, 48 h, read-out: Activity
MDA-MB-468 [13] = assay: Growth inhibition of human MDA-MB-468 cells assessed as cell growth at 30 uM incubated for 48 hrs by sulforhodamine B assay relative to control; assay type: functional; conditions: MDA-MB-468, 48 h, read-out: Activity

Chain of Serine/threonine-protein kinase B-raf (P15056 whole entry): as the sequence (P15056 whole entry V600E) above, with E600V counted along it

For `COc1cc2cc(Oc3ccc(NC(=O)Nc4ccc(Cl)c(C(F)(F)F)c4)cc3)c(C)nc2cc1OC`, the inhibition [1] was 74.2%, the growth at 3 µM (LOX IMVI) was 12% and the inhibition [2] was 88.9%.

In the case of `COc1cc2cc(Oc3ccc(NC(=O)Nc4cccc(C(F)(F)F)c4)cc3)c(C)nc2cc1OC`, the growth at 0.5 µM (SK-MEL-5) is reported as 93%, the growth at 0.5 µM (BT-549) is reported as 86% and the growth at 0.05 µM (UACC-257) is reported as 94%. The growth at 5 µM (HOP-92) was -10%, the growth at 0.05 µM (RXF 393) was 105% and the growth at 0.05 µM (KM12 [3]) was 89%. For the same compound, the growth at 5 µM (MCF7 [4]) was 3%, the growth at 5 µM (NCI-H522) was -4% and the growth at 50 µM (IGROV-1 [5]) was -14%. For the same compound, the growth at 50 µM (CAKI-1) was -51%, the growth at 0.05 µM (MCF7 [6]) was 91% and the growth at 5 µM (IGROV-1 [7]) was 31%. The growth at 0.05 µM (HCC 2998) was 105%, the growth at 0.5 µM (SNB-75 [8]) was 77% and the growth at 5 µM (NCI-H23) was 9%. The growth at 0.05 µM (UACC-62) was 94%, the growth at 50 µM (HCT-15) was -10% and the growth at 0.05 µM (NCI-H460) was 106%. It also gave a growth at 50 µM (SF-539) of -82%, a growth at 5 µM (SNB-75 [9]) of 5% and a growth at 0.005 µM (Malme-3M) of 94%. For the same compound, the growth at 0.5 µM (KM12 [10]) was 88%, the growth at 5 µM (MDA-MB-231) was -7% and the growth at 0.5 µM (SK-MEL-28) was 92%. For the same compound, the growth at 50 µM (Hs-578T) was -41%, the growth at 50 µM (MCF7 [11]) was -89% and the growth at 0.05 µM (SW-620) was 98%. It also gave a growth at 50 µM (HOP-62) of -85%.

In the case of `Cc1nc2cc(O)c(O)cc2cc1Oc1ccc(NC(=O)Nc2ccc(Cl)c(Cl)c2)cc1`, the growth at 0.03 µM (MDA-MB-468 [12]) is reported as 105% and the growth at 30 µM (MDA-MB-468 [13]) is reported as -34%.
